From patent US20040235742A1, “Water channel opener compositions and medicinal compositions for ophthalmic use” (SANTEN PHARMACEUTICAL CO., LTD., priority 1999, published 2004)

How the values were obtained:
[1] = Lacrimation stimulating activity of odorant substances in mice; type: in vivo; conditions: for Change in lacrimation output after 15 minutes (%): 30 mg/kg into the caudal vein, relative to the average of two measurements before administration
Protocol: Then, using (R)-(−)-carvone, (+)-pregon, borneol, trans-4-methylcyclohexanol, and menthol, all of which are odorant substances, each dissolved in 0.1% hydrogenated castor oil-saline, the lacrimation-stimulating activities of these substances were evaluated in vivo. The method used was as follows.
The tear fluid was collected from the left eye of mice at 15-min intervals using a glass microcapillary tube (aspiration capacity 0.5 μL/32 mm). The amount of aspirated tear fluid was measured in length (mm) using calipers and converted to μL for use as a marker of lacrimation output. Mice were anesthetized by intraperitoneal administration of Nembutal Anesthetic Solution (0.2 mL/10 g body weight, dosage 60 mg/kg). After the loss of pain reflex was confirmed in the mice, the measurement of lacrimation output was started. Measurements were invariably carried out at 15-min intervals from the start to the end. After two initial measurements made 15 minutes apart, each test substance (dosage 30 mg/kg) was immediately administered into the caudal vein of mice at a ratio of 0.1 mL/10 g body weight. Thereafter, the collection of tear fluid was carried out at 15-min intervals.
The change in lacrimation output was expressed in the percentage of the lacrimation output at each measurement relative to the average of the lacrimation outputs at two initial measurements prior to administration of each test substance.

[2] = biological target: T1, lens aldose reductase (Homo sapiens, UniProt P15121); conditions: Arch. Pharm. Res., 11, 312-314 (1988); cited from earlier work
T1 construct: host or cells: lens

[3] = Combined use of an odorant substance and pilocarpine hydrochloride on lacrimation output in mice; type: in vivo
Protocol: The effect of the combined use of (R)-(−)carvone, i.e. the odorant substance used in Example 1, and pillocarpine hydrochloride was evaluated. The method used was as follows. The tear fluid was collected from the left eye of mice at 15-min intervals using a glass microcapillary tube (aspiration capacity 0.5 μL/32 mm). The amount of aspirated tear fluid was measured in length (mm) using calipers and converted to μL for use as a marker of lacrimation output. Mice were anesthetized by intraperitoneal administration of Nembutal Anesthetic Solution (0.2 mL/10 g body weight, dosage 60 mg/kg). After the loss of pain reflex was confirmed in the mice, the measurement of lacrimation output was started. Measurements were invariably carried out at 15-min intervals from the start to the end. After two initial measurements made 15 minutes apart, the test substance was immediately administered into the caudal vein of mice at a ratio of 0.1 mL/10 g body weight. Then, the measurement was repeated at 15-min intervals. Immediately after the measurement of lacrimation output at 15 minutes following administration of the test substance, […] pilocarpine hydrochloride was administered subcutaneously at 0.1 mL/10 g body weight (dosage 5 mg/kg). The collection of tear fluid was further carried out 4 times at 15-min intervals. […] The results on (R)-(−)-carvone (dosage 30 mg/kg) are shown in the graph in FIG. 3. […]

[4] = test system: sodium-potassium ATPase; conditions: olfactory tissue; Life Sciences, 20, 1051-1062 (1977); cited from earlier work

CC1(C)C2CCC1(C)C(O)C2 (stereo not shown) [Borneol, borneol]
Change in lacrimation output after 15 minutes (%) [1]: 97.5%

CC1CCC(C(C)C)C(O)C1 (stereo not shown) [Menthol, menthol]
Change in lacrimation output after 15 minutes (%) [1]: 88.1%

C[C@H]1CC[C@H](O)CC1 [Trans-4-methylcyclohexanol, trans-4-methylcyclohexanol]
Change in lacrimation output after 15 minutes (%) [1]: 85.4%

C=C(C)[C@@H]1CC=C(C)C(=O)C1 [(R)-(−)-carvone]
inhibition of lens aldose reductase [2]: inhibit | change in lacrimation output, combined use with pilocarpine hydrochloride ([3]; (R)-(-)-carvone 30 mg/kg i.v., then 0.005% pilocarpine hydrochloride s.c. (dosage 5 mg/kg) 15 minutes later, FIG. 3): marked increases in lacrimation | duration of the lacrimation effect, combined use with pilocarpine ([3]; Example 4 compared with Example 3): further prolongation of the effect | Change in lacrimation output after 15 minutes (%) [1]: 61.5% | increase in lacrimation output ([1]; Example 3, 15 to 30 minutes after administration): not less than 60% | effect on sodium-potassium ATPase [4]: influence

CC(C)=C1CC[C@@H](C)CC1=O [(+)-pregon]
Change in lacrimation output after 15 minutes (%) [1]: 70.2%
